From ChEMBL document CHEMBL1201862, “PubChem BioAssay data set” (2004)
Activity calls are given as the source filed them.

What was measured:
[1] = Luminescence Cell-Based Dose Retest to Confirm Inhibitors of Cancer Stem Cells. [Related pubchem assays (depositor defined):AID2717, AID2721]; format: functional; conditions: Homo sapiens
Trypsin = Trypsin (Sus scrofa, UniProt P00761); experiment: trypsin protease activity blockade – biochemical, quenched peptide fluorescence, cherry-pick, selectivity assay for Rce1 protease inhibitor project, dose response (AID 488789)
Chain of Trypsin (P00761 whole entry): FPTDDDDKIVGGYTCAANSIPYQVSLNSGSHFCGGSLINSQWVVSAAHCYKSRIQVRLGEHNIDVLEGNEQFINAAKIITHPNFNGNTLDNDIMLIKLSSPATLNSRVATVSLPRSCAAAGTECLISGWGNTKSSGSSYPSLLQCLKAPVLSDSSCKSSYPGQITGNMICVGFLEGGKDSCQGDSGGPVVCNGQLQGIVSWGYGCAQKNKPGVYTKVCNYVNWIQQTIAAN

CAAX prenyl protease 2 [2] = target: T1, CAAX prenyl protease 2 (Saccharomyces cerevisiae S288c, UniProt Q03530); format: biochemical
T1 sequence (Q03530 whole entry): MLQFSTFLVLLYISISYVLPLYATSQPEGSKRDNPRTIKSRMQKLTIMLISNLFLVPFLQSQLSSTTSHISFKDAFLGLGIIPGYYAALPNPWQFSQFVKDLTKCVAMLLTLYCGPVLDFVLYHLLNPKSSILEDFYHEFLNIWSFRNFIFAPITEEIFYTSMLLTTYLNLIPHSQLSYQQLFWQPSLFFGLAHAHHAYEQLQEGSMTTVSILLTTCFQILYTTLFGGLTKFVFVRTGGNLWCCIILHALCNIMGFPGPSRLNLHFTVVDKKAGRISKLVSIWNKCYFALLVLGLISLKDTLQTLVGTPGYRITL

Streptokinase A = target: T2, Streptokinase A (Streptococcus pyogenes serotype M1, UniProt P10520); experiment: viability-normalized secreted streptokinase activity reduction – plasminogen activation absorbance, OD405, dose response (AID 1914); format: functional, Streptococcus pyogenes M1 GAS;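 also: secreted streptokinase activity via plasminogen activation per viability signal from cell pellet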
T2 sequence (P10520 whole entry): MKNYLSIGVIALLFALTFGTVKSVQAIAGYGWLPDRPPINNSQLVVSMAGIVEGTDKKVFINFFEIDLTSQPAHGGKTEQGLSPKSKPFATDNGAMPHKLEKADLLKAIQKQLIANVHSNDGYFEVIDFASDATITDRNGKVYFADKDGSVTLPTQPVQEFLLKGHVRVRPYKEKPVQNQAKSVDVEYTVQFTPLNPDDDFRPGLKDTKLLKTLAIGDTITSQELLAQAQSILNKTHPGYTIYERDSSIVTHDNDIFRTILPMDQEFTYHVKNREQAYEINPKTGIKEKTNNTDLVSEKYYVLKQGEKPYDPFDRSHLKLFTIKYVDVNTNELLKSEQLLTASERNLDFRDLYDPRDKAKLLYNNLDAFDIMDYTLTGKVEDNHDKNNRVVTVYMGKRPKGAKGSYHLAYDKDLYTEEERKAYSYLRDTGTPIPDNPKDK

Streptococcus = experiment: GAS UMAA2166 growth inhibition – luminescence, BacTiterGlo, counter-screen for streptokinase expression inhibitor project, dose response (AID 1915); format: functional, organism-based;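 also: potency for reduction of bacterial viability or growth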
CAAX prenyl protease 1 = CAAX prenyl protease 1 (Saccharomyces cerevisiae S288c, UniProt P47154); experiment: yeast CAAX protease Ste24 inhibition – biochemical, S. cerevisiae, plate reader, cherry-pick, dose response (AID 488815)
[3] = test system: Streptococcus sp. 'group A'; experiment: Streptococcus pyogenes SK(-)GAS viability under kanamycin – luminescence, BacTiterGlo, confirmation, counter-screen for streptokinase expression inhibitor project, dose response (AID 1900); format: functional, organism-based
CAAX prenyl protease 2 [4] = target: CAAX prenyl protease 2 (Homo sapiens, UniProt Q9Y256); experiment: inhibition of Ras-converting CAAX protease Rce1 – biochemical, yeast membranes, quenched-peptide fluorescence, cherry-pick, dose response (AID 588849)
Chain of CAAX prenyl protease 2 (Homo sapiens, UniProt Q9Y256) (Q9Y256 whole entry): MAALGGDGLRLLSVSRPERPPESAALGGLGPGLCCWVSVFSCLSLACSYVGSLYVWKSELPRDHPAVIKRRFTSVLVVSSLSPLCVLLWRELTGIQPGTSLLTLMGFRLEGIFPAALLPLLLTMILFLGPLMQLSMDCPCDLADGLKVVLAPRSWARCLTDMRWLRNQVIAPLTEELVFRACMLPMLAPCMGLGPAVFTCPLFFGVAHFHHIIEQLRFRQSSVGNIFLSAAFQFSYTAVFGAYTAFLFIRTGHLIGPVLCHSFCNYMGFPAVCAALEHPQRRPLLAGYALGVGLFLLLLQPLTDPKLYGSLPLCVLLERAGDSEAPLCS

[5] = target: T3, Sentrin-specific protease 8 (Homo sapiens, UniProt Q96LD8); format: functional;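 also: luminescence read-out of SENP8 inhibition, dose-response confirmation following an ultra-high-throughput screen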
T3 sequence (Q96LD8 whole entry): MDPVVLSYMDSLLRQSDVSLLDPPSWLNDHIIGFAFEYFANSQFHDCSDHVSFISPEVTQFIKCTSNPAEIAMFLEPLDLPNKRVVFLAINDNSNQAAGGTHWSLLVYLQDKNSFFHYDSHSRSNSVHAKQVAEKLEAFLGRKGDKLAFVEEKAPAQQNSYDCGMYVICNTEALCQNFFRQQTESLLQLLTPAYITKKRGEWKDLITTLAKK

[6] = target: T4, Oxysterols receptor LXR-beta (Homo sapiens, UniProt P55055); format: functional, cell-based;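 also: Cell-based luminescence dose-response assay of agonist activity at LXR, run as a confirmatory counterscreen to a daf-12 agonist screen; agonist potency from rising luciferase signal of a Gal4-LXR reporter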
T4 sequence (P55055 whole entry): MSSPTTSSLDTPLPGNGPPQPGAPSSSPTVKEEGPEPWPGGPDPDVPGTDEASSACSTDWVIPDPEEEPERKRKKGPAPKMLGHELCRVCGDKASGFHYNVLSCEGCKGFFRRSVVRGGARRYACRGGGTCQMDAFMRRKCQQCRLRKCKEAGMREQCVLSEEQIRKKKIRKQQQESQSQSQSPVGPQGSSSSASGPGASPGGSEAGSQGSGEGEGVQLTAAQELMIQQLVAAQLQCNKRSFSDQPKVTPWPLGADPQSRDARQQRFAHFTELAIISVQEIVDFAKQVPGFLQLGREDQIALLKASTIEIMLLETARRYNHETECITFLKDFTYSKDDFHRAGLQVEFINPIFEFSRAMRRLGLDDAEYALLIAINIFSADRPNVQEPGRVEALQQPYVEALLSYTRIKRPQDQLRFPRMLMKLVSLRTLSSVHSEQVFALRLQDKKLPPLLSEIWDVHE

[7] = target: Sentrin-specific protease 7 (Homo sapiens, UniProt Q9BQF6); format: functional;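 also: Luminescence-based dose-response confirmation of ultra-high-throughput screening hits, measuring inhibition of SENP7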
Chain of Sentrin-specific protease 7 (Q9BQF6 whole entry): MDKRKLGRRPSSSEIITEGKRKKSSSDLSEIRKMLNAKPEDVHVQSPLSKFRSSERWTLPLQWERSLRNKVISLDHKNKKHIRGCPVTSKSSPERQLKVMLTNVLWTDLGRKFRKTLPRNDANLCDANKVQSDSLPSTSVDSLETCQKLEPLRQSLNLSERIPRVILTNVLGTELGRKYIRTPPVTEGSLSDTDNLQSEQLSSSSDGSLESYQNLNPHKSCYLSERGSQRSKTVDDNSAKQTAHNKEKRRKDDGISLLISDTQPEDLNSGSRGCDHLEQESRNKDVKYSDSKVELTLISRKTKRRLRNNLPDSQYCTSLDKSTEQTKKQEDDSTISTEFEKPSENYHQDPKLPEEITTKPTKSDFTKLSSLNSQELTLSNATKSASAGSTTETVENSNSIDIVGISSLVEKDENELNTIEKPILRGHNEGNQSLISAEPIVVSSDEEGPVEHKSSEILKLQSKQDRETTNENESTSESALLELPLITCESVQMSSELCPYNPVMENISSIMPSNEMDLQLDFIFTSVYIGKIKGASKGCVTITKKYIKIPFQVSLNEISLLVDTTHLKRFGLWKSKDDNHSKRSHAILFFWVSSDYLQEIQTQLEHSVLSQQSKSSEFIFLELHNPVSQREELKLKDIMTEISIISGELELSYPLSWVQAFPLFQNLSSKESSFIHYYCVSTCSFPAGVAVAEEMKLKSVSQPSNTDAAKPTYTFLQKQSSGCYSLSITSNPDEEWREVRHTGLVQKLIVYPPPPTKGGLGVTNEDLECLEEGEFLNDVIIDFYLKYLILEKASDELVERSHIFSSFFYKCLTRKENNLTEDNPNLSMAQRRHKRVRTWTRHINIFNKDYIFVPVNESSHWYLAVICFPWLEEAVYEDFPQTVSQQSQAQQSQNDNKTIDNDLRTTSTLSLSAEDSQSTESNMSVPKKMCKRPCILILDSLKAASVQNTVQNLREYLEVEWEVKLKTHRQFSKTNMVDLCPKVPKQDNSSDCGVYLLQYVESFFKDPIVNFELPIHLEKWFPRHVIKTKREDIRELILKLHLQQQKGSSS

[8] = target: T5, Mannose-6-phosphate isomerase (Homo sapiens, UniProt P34949); experiment: MPI enzyme activity inhibition – biochemical, fluorescence intensity, coupled assay, primary screen (AID 1209)
T5 sequence (P34949 whole entry): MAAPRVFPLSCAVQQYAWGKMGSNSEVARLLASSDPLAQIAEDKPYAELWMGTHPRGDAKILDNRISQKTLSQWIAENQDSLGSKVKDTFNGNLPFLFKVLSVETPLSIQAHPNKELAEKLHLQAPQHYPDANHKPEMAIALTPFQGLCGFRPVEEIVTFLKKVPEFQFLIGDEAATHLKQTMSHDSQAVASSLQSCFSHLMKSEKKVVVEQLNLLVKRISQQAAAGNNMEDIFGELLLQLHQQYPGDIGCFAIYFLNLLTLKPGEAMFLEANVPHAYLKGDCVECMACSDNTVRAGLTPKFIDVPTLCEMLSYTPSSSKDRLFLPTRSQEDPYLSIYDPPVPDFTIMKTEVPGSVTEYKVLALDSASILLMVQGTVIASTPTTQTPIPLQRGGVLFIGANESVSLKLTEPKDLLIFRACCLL

Caspase-3 = Caspase-3 (Homo sapiens, UniProt P42574); format: functional;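 also: Dose-response selectivity test against caspase-3 for candidate inhibitors of sentrin-specific proteases (SENPs)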
Chain of Caspase-3 (P42574 29-175 limits assumed): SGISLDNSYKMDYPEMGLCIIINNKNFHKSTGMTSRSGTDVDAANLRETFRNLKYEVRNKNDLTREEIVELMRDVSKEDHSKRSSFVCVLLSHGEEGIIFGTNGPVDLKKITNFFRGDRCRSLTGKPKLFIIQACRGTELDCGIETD
Chain of Caspase-3 (P42574 176-277 limits assumed): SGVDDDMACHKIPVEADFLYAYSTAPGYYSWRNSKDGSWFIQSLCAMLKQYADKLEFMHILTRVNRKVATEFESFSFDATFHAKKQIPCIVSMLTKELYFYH

[9] = target: Sentrin-specific protease 6 (Homo sapiens, UniProt Q9GZR1); format: functional;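 also: Luminescence-based dose-response confirmatory assay of SENP6 inhibition, following up an ultra-high-throughput screen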
Chain of Sentrin-specific protease 6 (Q9GZR1 whole entry, the tested form may be a part): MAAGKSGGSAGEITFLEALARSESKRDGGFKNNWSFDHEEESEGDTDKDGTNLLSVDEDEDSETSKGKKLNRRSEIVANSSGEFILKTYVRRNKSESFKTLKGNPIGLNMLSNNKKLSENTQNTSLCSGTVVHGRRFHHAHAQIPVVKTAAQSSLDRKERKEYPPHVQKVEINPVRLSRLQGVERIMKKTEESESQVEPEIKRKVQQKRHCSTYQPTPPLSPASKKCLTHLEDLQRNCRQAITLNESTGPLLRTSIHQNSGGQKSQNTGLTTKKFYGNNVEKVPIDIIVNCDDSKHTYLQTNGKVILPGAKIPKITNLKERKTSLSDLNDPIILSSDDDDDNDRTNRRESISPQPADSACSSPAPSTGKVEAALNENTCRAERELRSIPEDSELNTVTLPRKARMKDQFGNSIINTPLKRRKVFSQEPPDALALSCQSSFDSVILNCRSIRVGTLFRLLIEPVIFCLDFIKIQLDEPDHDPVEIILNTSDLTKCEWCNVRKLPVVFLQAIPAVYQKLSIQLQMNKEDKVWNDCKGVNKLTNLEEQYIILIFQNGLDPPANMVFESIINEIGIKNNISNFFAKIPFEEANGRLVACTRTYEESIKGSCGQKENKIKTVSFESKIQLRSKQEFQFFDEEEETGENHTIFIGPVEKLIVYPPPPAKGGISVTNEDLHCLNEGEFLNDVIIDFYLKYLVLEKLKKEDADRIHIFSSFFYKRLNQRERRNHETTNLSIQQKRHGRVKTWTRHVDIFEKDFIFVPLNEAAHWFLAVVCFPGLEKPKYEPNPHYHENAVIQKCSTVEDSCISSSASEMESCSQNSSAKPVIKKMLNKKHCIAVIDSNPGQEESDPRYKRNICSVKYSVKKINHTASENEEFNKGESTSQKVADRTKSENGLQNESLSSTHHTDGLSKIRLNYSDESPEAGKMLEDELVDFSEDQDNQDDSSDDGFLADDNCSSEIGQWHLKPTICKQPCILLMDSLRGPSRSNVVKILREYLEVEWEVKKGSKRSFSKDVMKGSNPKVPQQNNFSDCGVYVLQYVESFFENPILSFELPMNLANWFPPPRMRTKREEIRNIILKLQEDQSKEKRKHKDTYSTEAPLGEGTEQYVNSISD

[10] = target: T4, Oxysterols receptor LXR-beta; experiment: LXR agonists, Gal4 luciferase reporter, dose response, counter-screen for ssDAF-12 agonist project, cell-based, luminescence, HEK293, S. stercoralis campaign (AID 720737); format: functional; conditions: read-out: IC50 (the source's name)
[11] = target: T5, Mannose-6-phosphate isomerase; experiment: MPI inhibition at elevated mannose 6-phosphate – biochemical, fluorescence intensity, high mannose 6-phosphate, primary screen (AID 1220)
[12] = Luminescence-based cell-based high throughput dose response assay to identify activators of the DAF-12 from the parasite S. stercoralis (ssDAF-12).; format: functional
[13] = target: Induced myeloid leukemia cell differentiation protein Mcl-1 (Homo sapiens, UniProt Q07820); format: functional
Chain of Induced myeloid leukemia cell differentiation protein Mcl-1 (Q07820 whole entry): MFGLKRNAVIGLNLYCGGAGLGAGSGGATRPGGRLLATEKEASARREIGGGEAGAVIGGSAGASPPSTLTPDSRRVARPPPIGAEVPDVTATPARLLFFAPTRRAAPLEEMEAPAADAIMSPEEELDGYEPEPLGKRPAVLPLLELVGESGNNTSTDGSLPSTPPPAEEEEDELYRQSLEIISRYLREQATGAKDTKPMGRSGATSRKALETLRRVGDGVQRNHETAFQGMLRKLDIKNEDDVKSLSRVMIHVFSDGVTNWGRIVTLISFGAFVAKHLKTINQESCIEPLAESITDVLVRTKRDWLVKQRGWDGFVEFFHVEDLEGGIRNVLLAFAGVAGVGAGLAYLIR

[14] = DRD fibroblast viability loss – cell-based, non-viral oncogenic, luminescence, dose response (AID 1934); format: functional; conditions: Homo sapiens
BJ [15] = experiment: BJ-TERT-LT-ST fibroblast viability loss – cell-based, RAS-independent, luminescence, dose response (AID 1935); format: functional; conditions: Homo sapiens;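 also: BJ fibroblasts immortalized with TERT plus LT and ST oncogenes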
BJ [16] = experiment: growth inhibition of engineered Ras-driven BJ cells – cell-based, alamar blue fluorescence, cherrypicked samples, dose response (AID 2631); format: functional; conditions: Homo sapiens;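 also: confirmatory dose-response assay in RAS-dependent BJ fibroblasts engineered with TERT, LT and ST, with cytotoxicity read by fluorescence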
BJ [17] = experiment: cells; format: functional, cell-based; conditions: Homo sapiens
BJ [18] = experiment: BJ-TERT fibroblast viability loss – cell-based, RAS-independent, luminescence, dose response (AID 1933); format: functional; conditions: Homo sapiens
[19] = microbe, parasite or virus in culture; format: functional; conditions: Mycobacterium tuberculosis
[20] = fluconazole-exposed Candida albicans growth modulators – fluorescence, retest, confirmation (AID 2467); format: functional, cell-based
[21] = NIH-3T3 fibroblast cytotoxicity, dose response, cytotoxicity control, cell-based, fluorescence, Alamar Blue, secondary assay (AID 2327); format: functional;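 also: NIH-3T3 mouse fibroblasts cultured with fluconazole at 8 µg/mL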
[22] = target: Serine/threonine-protein phosphatase (Candida dubliniensis (strain CD36 / CBS 7987 / NCPF 3949 / NRRLY-17841) (Yeast), UniProt B9W6M3); experiment: blockers of CaCl2-induced CDRE-lacZ signaling – S. cerevisiae, luminescence, secondary, dose response (AID 2388); format: functional, cell-based;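 also: yeast reporter cells carrying a calcineurin-responsive lacZ construct stimulated with calcium chloride; luminescent beta-galactosidase reporter signal in whole cells rather than isolated phosphatase activity; potency for inhibition where a drop in reporter signal means calcineurin blockade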
Chain of Serine/threonine-protein phosphatase (B9W6M3 whole entry): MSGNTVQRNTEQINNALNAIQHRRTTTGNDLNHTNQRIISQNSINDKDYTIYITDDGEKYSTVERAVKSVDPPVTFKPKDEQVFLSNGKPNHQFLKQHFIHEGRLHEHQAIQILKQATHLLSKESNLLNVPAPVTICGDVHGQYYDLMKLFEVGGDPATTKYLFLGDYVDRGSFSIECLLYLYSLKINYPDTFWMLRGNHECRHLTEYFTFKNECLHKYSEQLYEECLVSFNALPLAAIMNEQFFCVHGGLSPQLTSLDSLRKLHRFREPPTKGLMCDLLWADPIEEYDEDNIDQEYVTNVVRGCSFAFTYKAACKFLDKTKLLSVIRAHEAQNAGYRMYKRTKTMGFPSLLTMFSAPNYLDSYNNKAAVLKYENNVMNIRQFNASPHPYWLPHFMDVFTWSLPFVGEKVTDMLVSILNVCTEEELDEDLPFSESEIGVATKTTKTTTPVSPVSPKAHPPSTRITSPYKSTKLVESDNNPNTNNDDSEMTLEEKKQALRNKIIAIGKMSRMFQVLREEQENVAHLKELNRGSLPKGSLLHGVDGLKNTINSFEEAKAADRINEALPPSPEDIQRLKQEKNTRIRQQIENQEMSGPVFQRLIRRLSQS

[23] = target: ATP-dependent molecular chaperone HSP82 (Candida albicans (strain WO-1) (Yeast), UniProt C4YTQ8); experiment: steroid-induced GRE reporter decrease in yeast – S. cerevisiae, luminescence, Hsp90 inhibitor project, dose response (AID 2400); format: functional, cell-based;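 also: beta-galactosidase luminescence from glucocorticoid response element reporter as proxy for Hsp90 function; inhibitor potency where signal loss means Hsp90 inhibition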
Chain of ATP-dependent molecular chaperone HSP82 (C4YTQ8 whole entry): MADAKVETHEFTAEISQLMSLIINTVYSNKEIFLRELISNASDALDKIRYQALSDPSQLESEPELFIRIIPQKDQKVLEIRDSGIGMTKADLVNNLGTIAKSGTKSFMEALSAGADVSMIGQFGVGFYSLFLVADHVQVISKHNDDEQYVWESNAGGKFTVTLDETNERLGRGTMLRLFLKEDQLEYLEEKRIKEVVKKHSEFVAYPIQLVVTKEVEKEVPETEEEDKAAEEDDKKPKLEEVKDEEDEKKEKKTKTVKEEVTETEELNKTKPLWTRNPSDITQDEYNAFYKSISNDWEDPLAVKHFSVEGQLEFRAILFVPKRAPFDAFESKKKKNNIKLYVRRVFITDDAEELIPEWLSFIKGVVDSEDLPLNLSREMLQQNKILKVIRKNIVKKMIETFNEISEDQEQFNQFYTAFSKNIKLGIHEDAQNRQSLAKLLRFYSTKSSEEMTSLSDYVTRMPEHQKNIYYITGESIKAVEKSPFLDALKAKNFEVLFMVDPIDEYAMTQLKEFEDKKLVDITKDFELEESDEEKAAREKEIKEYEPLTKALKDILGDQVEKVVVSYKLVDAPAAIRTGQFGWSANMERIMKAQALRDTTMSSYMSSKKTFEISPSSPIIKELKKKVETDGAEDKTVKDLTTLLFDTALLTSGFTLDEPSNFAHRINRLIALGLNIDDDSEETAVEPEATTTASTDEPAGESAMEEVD

Fatty acid synthase [24] = target: T6, Fatty acid synthase (Homo sapiens, UniProt P49327); experiment: inhibition of human FAS-TE enzyme activity – biochemical, endpoint fluorescence intensity, uHTS hits, dose response (AID 624327); format: functional;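 also: fluorescence from hydrolysis of an O-methyl fluorescein acyl ester substrate by the enzyme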
Fatty acid synthase [25] = target: T6, Fatty acid synthase; experiment: inhibition of human FAS-TE enzyme activity – biochemical, kinetic fluorescence intensity, dose response (AID 624326); format: functional;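 also: rate of fluorescence rise from hydrolysis of a fluorogenic O-methyl fluorescein ester substrate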
Vero = experiment: cells; format: functional; conditions: Chlorocebus sabaeus

Cc1cccc(-c2oc3ccccc3c2C#CCCCCO)c1
AC50 [1]: 6.31 µM (active)
AC50 (Trypsin): 3.53 µM (active)
AC50 (CAAX prenyl protease 2 [2]): 7.08 µM (active)
EC50 (Streptokinase A): > 150 µM (not active)
EC50 (Streptococcus): 7.64 µM (active)
AC50 (CAAX prenyl protease 1): 3.56 µM (active)
EC50 [3]: 4.57 µM (active)
AC50 (CAAX prenyl protease 2 [4]): 12.9 µM (active)

COc1ccc(-n2nc3cc(C)c(N)c(Br)c3n2)cc1
IC50 [5]: 41.3 µM (active)
EC50 [6]: > 67.5 µM (inactive)
IC50 [7]: 5.86 µM (active)
IC50 [8]: > 50 µM (not active)
IC50 (Caspase-3): 35.5 µM (active)
EC50 (cells): > 67.5 µM (inactive)
IC50 [9]: 13.7 µM (active)
EC50 [10]: > 67.5 µM (inactive)
IC50 [11]: > 50 µM (not active)
IC50 [12]: > 67.5 µM (inactive)
IC50 [13]: 2.53 µM (active)

Cc1ccccc1Nc1nc(N)nc(CCl)n1
EC50 [14]: 4.85 µM (active)
EC50 (BJ [15]): > 150 µM (not active)
EC50 (BJ [16]): 13.6 µM (active)
EC50 (BJ [17]): 7.39 µM (inconclusive)
EC50 (BJ [18]): 0.369 µM (inconclusive)

Cc1c(Cl)ccc2c1NC(=O)[C@]21N[C@@H](Cc2ccccc2)[C@H]2C(=O)N(c3ccc(F)cc3)C(=O)[C@H]21
CC50 [19]: 33 µM (active)
EC50 [20]: 0.206 µM (active)
EC50 [21]: > 150 µM (inactive)
EC50 [22]: > 180 µM (inactive)
EC50 [23]: > 160 µM (inactive)

Cc1ccc(OCc2nc(-c3ccccc3)no2)cc1
IC50 [5]: 69.9 µM (active)
IC50 [7]: 11.6 µM (active)
IC50 (Caspase-3): 42.1 µM (active)
IC50 [9]: 47.1 µM (active)

O=C(Nc1nnc(-c2ccc(F)cc2)o1)c1cccc([N+](=O)[O-])c1
IC50 (Fatty acid synthase [24]): 11.9 µM (active)
IC50 (Fatty acid synthase [25]): 9.09 µM (active)
EC50 [20]: 0.601 µM (active)
EC50 [21]: > 150 µM (inactive)
EC50 [22]: > 180 µM (inactive)
CC50 (Vero): 11.4 µM (active)
EC50 [23]: > 150 µM (inactive)
